From ChEMBL document CHEMBL1201862, “PubChem BioAssay data set” (2004)
Values joined by “and” are separate entries in the source; they are usually repeats but may differ in a detail not shown here. Identical values can stand only once. Active and inactive are the calls of the source.

Assays:
[1] = rise of 2N DNA cells, HeLa – IC50, dose response (AID 1117349); assay type: functional, cell-based
SN12K1 = assay: cells; assay type: functional; settings: Homo sapiens
[2] = cytotoxicity toward HT-29 cells – cell-based, CellTiter-Glo luminescence, IC50, dose response (AID 1117330); assay type: functional
P388/ADR = assay: cells; assay type: functional; settings: Mus musculus
[3] = microbe, parasite or virus in culture; assay type: functional; settings: Mycobacterium tuberculosis
[4] = RKO cell viability reduction, dose response, CellTiter-Glo luminescence (AID 1117322); assay type: functional
[5] = rise of 4N DNA cells, HeLa – IC50, dose response (AID 1117351); assay type: functional, cell-based
P388 = assay: cells; assay type: functional; settings: Mus musculus
[6] = HCT116 cell viability decrease, GSK3B pretreatment – CellTiter-Glo, IC50, dose response (AID 1117339); assay type: functional; settings: HCT-116
Bcl-2-related protein A1 [7] = target: T1, Bcl-2-related protein A1 (Mus musculus, UniProt Q07440); assay: displacement of Bid BH3 peptide from Bfl-1 – biochemical, fluorescence polarization, FITC-Bid, mouse, primary screen (AID 432)
T1 sequence (Q07440 whole entry): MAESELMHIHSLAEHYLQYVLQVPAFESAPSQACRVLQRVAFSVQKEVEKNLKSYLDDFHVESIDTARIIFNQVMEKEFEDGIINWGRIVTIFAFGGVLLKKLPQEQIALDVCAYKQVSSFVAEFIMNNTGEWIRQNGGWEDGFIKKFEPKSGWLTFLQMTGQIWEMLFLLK

Bcl-2-related protein A1 [8] = target: T1, Bcl-2-related protein A1; assay: Bfl-1 binding inhibitors, SAR follow-up, biochemical, fluorescence polarization (AID 1070)
Bcl-2-related protein A1 [9] = target: T1, Bcl-2-related protein A1; assay: small-molecule antagonists of Bfl-1/BH3 interaction – biochemical, TR-FRET, mouse Bfl-1, confirmation (AID 621);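 also: TR-FRET binding of GST-Bfl-1 to FITC-labelled Bid peptide via terbium antibody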
[10] = target: Glyceraldehyde-3-phosphate dehydrogenase (Homo sapiens, UniProt P04406)
Glyceraldehyde-3-phosphate dehydrogenase, sequence (P04406 whole entry): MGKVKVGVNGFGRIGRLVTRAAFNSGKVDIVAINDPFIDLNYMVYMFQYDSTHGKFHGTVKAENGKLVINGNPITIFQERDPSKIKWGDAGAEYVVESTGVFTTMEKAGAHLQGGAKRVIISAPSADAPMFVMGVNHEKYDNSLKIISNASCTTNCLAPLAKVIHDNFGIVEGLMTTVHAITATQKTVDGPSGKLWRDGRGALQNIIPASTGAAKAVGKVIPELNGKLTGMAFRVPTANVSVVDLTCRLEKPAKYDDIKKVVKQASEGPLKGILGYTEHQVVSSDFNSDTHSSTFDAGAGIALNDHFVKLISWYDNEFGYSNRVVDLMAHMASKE

[11] = IGROV1 cell killing – plate reader, dry powder samples, PAX8 inhibitor project, dose response (AID 743043); assay type: functional, cell-based; settings: IGROV-1
[12] = OVCAR4 cell viability loss – plate reader, dry powder, SA11, cytotoxicity control for PAX8 inhibitor project, dose response (AID 743150); assay type: functional, cell-based; settings: OVCAR-4
[13] = PAX8-dependent cell viability loss – plate reader, dry powder, dose response (AID 743049); assay type: functional, cell-based
[14] = COV362 cell viability loss – plate reader, dry powder, SA12, cytotoxicity control for PAX8 inhibitor project, dose response (AID 743144); assay type: functional, cell-based
[15] = OVCAR8 cell viability loss – plate reader, dry powder samples, PAX8 project, dose response (AID 743197); assay type: functional, cell-based; settings: OVCAR-8
Paired box protein Pax-8 = Paired box protein Pax-8 (Homo sapiens, UniProt Q06710); assay: PAX8 transcriptional activity inhibition in RMG-I – RMG-I cells, luciferase, cherry-pick, dose response (AID 687027); assay type: functional, cell-based;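 also: luciferase reporter driven by Pax8 target thyroperoxidase promoter measured by SteadyGlo luminescence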
Paired box protein Pax-8, sequence (Q06710 whole entry): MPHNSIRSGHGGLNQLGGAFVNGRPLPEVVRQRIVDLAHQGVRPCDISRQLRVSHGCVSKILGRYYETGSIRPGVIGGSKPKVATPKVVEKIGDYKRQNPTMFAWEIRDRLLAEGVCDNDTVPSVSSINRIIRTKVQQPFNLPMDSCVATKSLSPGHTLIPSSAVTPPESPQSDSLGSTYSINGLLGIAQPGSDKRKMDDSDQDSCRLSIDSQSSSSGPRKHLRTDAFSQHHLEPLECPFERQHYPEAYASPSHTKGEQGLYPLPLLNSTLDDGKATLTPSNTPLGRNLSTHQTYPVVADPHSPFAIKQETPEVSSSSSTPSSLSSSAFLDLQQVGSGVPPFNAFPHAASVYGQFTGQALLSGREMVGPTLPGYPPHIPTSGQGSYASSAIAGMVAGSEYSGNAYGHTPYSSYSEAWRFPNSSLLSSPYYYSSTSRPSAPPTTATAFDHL

[16] = COV434 cell viability loss – plate reader, dry powder, SA7, cytotoxicity control for PAX8 inhibitor project, dose response (AID 743145); assay type: functional, cell-based
[17] = PAX5 cellular inhibition readout – cell-based, plate reader, dry powder samples, selectivity assay for PAX8 inhibitor project, dose response (AID 743047); assay type: functional;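 also: HEK293 cells carrying a Pax5 driven CD19 promoter luciferase reporter; potency of inhibitors that lower reporter luminescence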
[18] = OVCAR-3 cell viability loss – plate reader, dry powder samples, PAX8 inhibitor project, dose response (AID 743044); assay type: functional, cell-based
[19] = OV-90 cell viability loss – plate reader, dry powder, SA8, PAX8 inhibitor project, dose response (AID 743149); assay type: functional, cell-based
[20] = blockade of melanocortin 4 receptor signaling – cell-based, plate reader, cherry pick, counter-screen for LGR2 antagonist project, dose response (AID 743444); assay type: functional;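 also: transfected HEK 293 cells stimulated with alpha-MSH peptide; potency of inhibitors of the alpha-MSH evoked signal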
[21] = viability loss in HEK293 cells – cell-based, plate reader, cherry-picked samples, cytotoxicity control, dose response (AID 743446); assay type: functional
[22] = growth inhibition of yeast DHODH-expressing 3D7 parasites – SYBR Green, dry powder samples, dose response (AID 1159570); assay type: functional, cell-based;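 also: parasite growth measured after 72 hours of compound exposure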
[23] = A2780 cell killing – plate reader, dry powder samples, cytotoxicity control, dose response (AID 743046); assay type: functional, cell-based
[24] = Dd2 parasite growth inhibition in erythrocytes – SYBR Green, dry powder samples, set 9, dose response (AID 1159568); assay type: functional, cell-based
[25] = Dd2 malaria parasite growth inhibition potency – SYBR Green, dry powder samples, dose response (AID 1159566); assay type: functional, cell-based;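 also: potency for growth inhibition with lower SYBR green DNA signal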
[26] = toxicity toward immortalized ovarian surface epithelium – cell-based, plate reader, dry powder samples, cytotoxicity control for PAX8 inhibitor project, dose response (AID 743045); assay type: functional
[27] = P. falciparum Dd2 growth inhibitors, dose response, SYBR Green, cherry-picked samples (AID 1159567); assay type: functional, cell-based
[28] = A549 cell cytotoxicity, dose response, cytotoxicity control, plate reader, cherry-pick, antagonist series (AID 743412); assay type: functional, cell-based
[29] = toxicity toward HepG2 liver cells – cell-based, plate reader, cherry-pick, antagonist series, cytotoxicity control, dose response (AID 743416); assay type: functional
[30] = blockers of bursicon-stimulated LGR2 cAMP reporter – cell-based, HEK293, CRE-luciferase reporter, cherry pick, set 2, dose response (AID 743343); assay type: functional;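 also: transfected cells were stimulated with diluted bursicon conditioned medium after compound addition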
[31] = growth inhibition of PfATP4-mutant resistant parasites – NITD609-resistant line, SYBR Green, dry powder, dose response (AID 1159571); assay type: functional, cell-based;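 also: parasites synchronized at ring stage by sorbitol before testing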
[32] = toxicity to human HepG2 hepatoma cells – cell-based, plate reader, dry powder samples, cytotoxicity control, dose response (AID 1159569); assay type: functional;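 also: inhibitor potency with signal falling toward the positive control level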
[33] = viability reduction in hepatoma cells – cell-based, ATP luminescence, dry powder, Set4, cytotoxicity control, dose response (AID 743143); assay type: functional; settings: HepG2
[34] = cytotoxicity in MITF-independent A375 cells – cell-based, CellTiter-Glo luminescence, dry powder, set 4, counter-screen for MITF inhibitor project, dose response (AID 624364); assay type: functional; settings: A-375;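 also: A375 melanoma cells are MITF independent so this is a counter screen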
[35] = MITF Orthogonal Assay: SK-MEL-5 CTG Assay Measured in Cell-Based System Using Plate Reader - 2084-02_Inhibitor_Dose_DryPowder_Activity_Set5.; assay type: functional
[36] = MITF Measured in Cell-Based System Using Plate Reader - 2084-01_Inhibitor_Dose_DryPowder_Activity_Set7.; assay type: functional
[37] = MITF Measured in Cell-Based System Using Plate Reader - 2084-01_Inhibitor_Dose_DryPowder_Activity_Set6.; assay type: functional
[38] = viability loss in MITF-independent A375 cells – cell-based, CellTiter-Glo luminescence, dry powder, set 7, counter-screen for MITF inhibitor project, dose response (AID 624490); assay type: functional; settings: A-375
[39] = growth inhibition of SK-MEL-5 melanoma cells – cell-based, CellTiter-Glo luminescence, dry powder, set 8, orthogonal assay for MITF inhibitor project, dose response (AID 651586); assay type: functional
[40] = growth inhibition of MALME3 cells – cell-based, CellTiter-Glo luminescence, dry powder, set 5, orthogonal assay for MITF inhibitor project, dose response (AID 651584); assay type: functional; settings: MALME-3
[41] = cytotoxicity in melanoma parental cells – cell-based, CellTiter-Glo, dry powder, set 6, MITF inhibitor project, dose response (AID 624429); assay type: functional; settings: SK-MEL-5
[42] = cytotoxicity in MITF-independent A375 cells – cell-based, CellTiter-Glo luminescence, dry powder, set 9, counter-screen for MITF modulator project, dose response (AID 651591); assay type: functional; settings: A-375
[43] = MITF Orthogonal Assay: MALME3 CTG Assay Measured in Cell-Based System Using Plate Reader - 2084-04_Inhibitor_Dose_DryPowder_Activity_Set6.; assay type: functional; settings: MALME-3
[44] = inhibitors of TRPM1-promoter reporter in SK-MEL-5 – cell-based, luciferase, dry powder, set 9, MITF inhibitor project, dose response (AID 651588); assay type: functional
[45] = viability loss in MITF-independent A375 cells – cell-based, CellTiter-Glo luminescence, dry powder, set 2, counter-screen for MITF inhibitor project, dose response (AID 624489); assay type: functional; settings: A-375;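 also: actives are compounds lowering A375 viability meaning general cytotoxicity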
[46] = viability loss in MITF-independent A375 cells – cell-based, CellTiter-Glo luminescence, dry powder, set 6, counter-screen for MITF inhibitor project, dose response (AID 624488); assay type: functional; settings: A-375
[47] = target: NAD-dependent protein deacylase sirtuin-5, mitochondrial (Homo sapiens, UniProt Q9NXA8); assay: sirtuin-5 deacylation blockers, concentration series – biochemical, fluorescence imaging, cherry-pick, set 5, dose response (AID 720591);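 also: desuccinylation of succinyl peptide AMC substrate read as fluorescence after trypsin release; potency of inhibitors that lower fluorescence and may act on trypsin instead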
NAD-dependent protein deacylase sirtuin-5, mitochondrial, sequence (Q9NXA8 whole entry): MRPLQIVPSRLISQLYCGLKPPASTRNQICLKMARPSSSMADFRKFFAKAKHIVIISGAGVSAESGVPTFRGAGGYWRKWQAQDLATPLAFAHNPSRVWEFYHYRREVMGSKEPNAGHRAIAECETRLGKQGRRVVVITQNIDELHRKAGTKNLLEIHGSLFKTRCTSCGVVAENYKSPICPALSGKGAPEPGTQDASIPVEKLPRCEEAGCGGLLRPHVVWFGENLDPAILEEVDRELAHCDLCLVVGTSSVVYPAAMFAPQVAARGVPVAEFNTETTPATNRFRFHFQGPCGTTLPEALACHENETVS

For CO[C@@]12[C@H](COC(N)=O)C3=C(C(=O)C(C)=C(N)C3=O)N1C[C@@H]1N[C@@H]12 [MITOMYCIN], the IC50 [1] was 0.0133 µM (active), the GI50 (SN12K1) was 0.959 µM (active) and the IC50 [2] was 2.57 µM (active). The GI50 (P388/ADR) was 1.39 µM (inactive), the CC50 [3] was > 40 µM (active) and the IC50 [4] was 0.995 µM (active). The IC50 [5] was > 10 µM (inactive), the GI50 (P388) was 0.181 µM (active) and the IC50 [6] was > 20 µM (inactive).

For COc1ccccc1C(=O)C1Nc2ccccc2-c2nnc(SC)nc2O1 (stereo not given), the IC50 (Bcl-2-related protein A1 [7]) was 4.79 µM (active), the IC50 (Bcl-2-related protein A1 [8]) was > 100 µM (not active) and the IC50 (Bcl-2-related protein A1 [9]) was > 100 µM (not active) and 4.6 µM (active). The IC50 [10] was > 100 µM (not active).

In the case of CN(C[C@H]1N[C@@H](CO)[C@@H]1c1ccc(C2=CCCC2)cc1)C(=O)c1ccncc1, the AC50 [11] is reported as 16.2 µM (active), the AC50 [12] is reported as 16.2 µM (active) and the AC50 [13] is reported as 16.3 µM (active). The AC50 [14] was 21.1 µM (active), the AC50 [15] was 17.5 µM (active) and the AC50 (Paired box protein Pax-8) was 6.17 µM (active). The AC50 [16] was 19.3 µM (active), the AC50 [17] was > 32 µM (inactive) and the AC50 [18] was 10.9 µM (active). The AC50 [19] was 47.5 µM (active).

With O=C(C1CC1)N1C[C@@H]2N[C@H](C1)[C@@H]2c1ccc(-c2ccccc2F)cc1 the AC50 [20] was 2.57 µM (active), the AC50 [11] was 4.13 µM (active) and the AC50 [21] was 4.12 µM (active). The AC50 [22] was 0.139 µM (active), the AC50 [23] was 5.34 µM (active) and the AC50 [24] was 0.83 µM (active). The AC50 [25] was 0.145 µM (active), the AC50 [26] was 3.24 µM (active) and the AC50 [15] was 2.72 µM (active). The AC50 [27] was 0.584 µM (active), the AC50 [28] was 1.84 µM (active) and the AC50 (Paired box protein Pax-8) was 1.2 µM (active). The AC50 [29] was 4.58 µM (active), the AC50 [30] was 2.25 µM (active) and the AC50 [31] was 0.225 µM (active). For the same compound, the AC50 [18] was 5.96 µM (active) and the AC50 [32] was 32.3 µM (active).

With O=C(CNC(=O)c1ccc(Cl)c(Cl)c1)N[C@@H]1CCCc2ccccc21 the AC50 [33] was > 52 µM (inactive).

For NC1=C(NC(=O)c2ccccc2)C(=O)c2ccccc2C1=O, the AC50 [34] was > 70 µM (inactive), the AC50 [35] was 6.7 µM (active) and the AC50 [36] was 7.02 µM (active). For the same compound, the AC50 [37] was 4.07 µM (active), the AC50 [38] was > 70 µM (inactive) and the AC50 [39] was 10.1 µM (active). For the same compound, the AC50 [40] was 14.3 µM (active), the AC50 [41] was 9.56 µM (active) and the AC50 [42] was > 70 µM (inactive). For the same compound, the AC50 [43] was 14.3 µM (active), the AC50 [44] was 18.6 µM (active) and the AC50 [45] was 59.8 µM (active). The AC50 [46] was 60.3 µM (active).

For CC(=O)CSc1nnc(-c2ccco2)n1-c1ccccc1, the AC50 [47] was > 30 µM (inactive).
